The record followed here is patent publication US7670991B2, “Substituted benzoylcyclohexenones and their use as herbicidal agents” (Bayer CropScience AG, priority 2001, dated 2010).

The data set is described as follows: log P by reversed-phase HPLC (C 18), acidic range. The following applies: marked a): acidic range. The data set is classed as physicochemical. As for the experimental part:
Temperature: 43° C. (a) Mobile phases for the determination in the acidic range: 0.1% aqueous phosphoric acid, acetonitrile; linear gradient from 10% acetonitrile to 90% acetonitrile—the corresponding measurement results are marked ^a) in Table 1.

Setting [1] is: 0.1% aqueous phosphoric acid, acetonitrile, HPLC reversed-phase column (C 18), 43° C.
[2] abbreviates: 0.1% aqueous phosphoric acid/acetonitrile gradient, HPLC C 18, 43° C.

Consider `CON(C)C(=O)Nc1c(Cl)ccc(C(=O)C2=C(O)CC(C)CC2=O)c1Cl` (racemic) [Example 3-1], for which the logP result under setting [1] is listed as “(I-2) logP = 2.33^a)”.
Regarding `CC1CC(=O)C(C(=O)c2ccc(Cl)c(NC(=O)N3CCCO3)c2Cl)=C(O)C1` (racemic) [Example 3-61], under setting [1], the logP result is “(I-2) logP = 2.25^a)”.
As to `CC1CC(=O)C(C(=O)c2ccc(Cl)c(NC(=O)N3CCCCO3)c2Cl)=C(O)C1` (racemic) [Example 3-69], the logP entry under setting [1] is listed as “(I-2) logP = 2.52^a)”.
As to `CCN(CC)C(=O)Nc1c(Cl)ccc(C(=O)C2=C(O)CCCC2=O)c1Cl` [Example 1-7], the logP entry under setting [2] is on record as “(I-2) logP = 2.21^a)”.
`CNC(=O)Nc1c(Cl)ccc(C(=O)C2=C(O)CCCC2=O)c1Cl` [Example 1-8]: the logP result under setting [2] is listed as “(I-2) logP = 1.46^a)”.
On to `CCNC(=O)Nc1c(Cl)ccc(C(=O)C2=C(O)CCCC2=O)c1Cl` [Example 1-9], for which the logP entry under setting [2] is “(I-2) logP = 1.70^a)”.
On the same count and under the same terms, in the case of `CN(C)C(=O)Nc1c(Cl)ccc(C(=O)C2=C(O)CCCC2=O)c1Cl` [Example 1-10] it was “(I-2) logP = 1.64^a)”; in that of `CC(C)NC(=O)Nc1c(Cl)ccc(C(=O)C2=C(O)CCCC2=O)c1Cl` [Example 1-12], “(I-2) logP = 1.99^a)”; in that of `O=C(Nc1c(Cl)ccc(C(=O)C2=C(O)CCCC2=O)c1Cl)NC1CC1` [Example 1-13], “(I-2) logP = 1.77^a)”.
Consider `O=C1CCCC(O)=C1C(=O)c1ccc(Cl)c(NC(=O)N2CCCC2)c1Cl` [Example 1-16], for which, under setting [2], the logP result is reported as “(I-2) logP = 1.90^a)”.
With `CCN1CCCN(C(=O)Nc2c(Cl)ccc(C(=O)C3=C(O)CCCC3=O)c2Cl)C1=O` [Example 1-23], the logP result under setting [2] is on record as “(I-2) logP = 2.65^a)”.
In the case of `CC(C)N1CCCN(C(=O)Nc2c(Cl)ccc(C(=O)C3=C(O)CCCC3=O)c2Cl)C1=O` [Example 1-25], the logP result under setting [2] was “(I-2) logP = 2.98^a)”.
With `O=C(NCC1CCCO1)Nc1c(Cl)ccc(C(=O)C2=C(O)CCCC2=O)c1Cl` (stereo not drawn) [Example 1-33], the logP entry under setting [2] is reported as “(I-2) logP = 1.81^a)”.
Take `COC(CNC(=O)Nc1c(Cl)ccc(C(=O)C2=C(O)CCCC2=O)c1Cl)OC` [Example 1-35]: the logP result under setting [2] is “(I-2) logP = 1.72^a)”.
Turning to `O=C(Nc1nnc(C(F)(F)F)s1)Nc1c(Cl)ccc(C(=O)C2=C(O)CCCC2=O)c1Cl` [Example 1-40], the logP entry under setting [2] is recorded as “(I-2) logP = 2.78^a)”.
On to `CN1CCN(C(=O)Nc2cc(C(F)(F)F)ccc2C(=O)C2=C(O)CCCC2=O)C1=O` [Example 1-100], for which the logP entry under setting [2] is recorded as “(I-1) logP = 2.57^a)”.
Take `O=C(Nc1c(Cl)ccc(C(=O)C2=C(O)CCCC2=O)c1Cl)NN1CCCC1` [Example 1-101]: the logP entry under setting [2] is “(I-2) logP = 1.94^a)”.
Regarding `O=C1CCCC(O)=C1C(=O)c1ccc(Cl)c(NC(=O)N2CCCN(C3CCCCC3)C2=O)c1Cl` [Example 1-103], under setting [2], the logP result was “(I-2) logP = 3.86^a)”.
Consider `CN1CCN(C(=O)N(C)c2cc(C(F)(F)F)ccc2C(=O)C2=C(O)CCCC2=O)C1=O` [Example 1-104], for which, under setting [2], the logP result is “(I-1) logP = 2.04^a)”.
As to `O=C1CCCC(O)=C1C(=O)c1ccc(Cl)c(NC(=O)N2CCCCC2)c1Cl` [Example 1-105], the logP entry under setting [2] is listed as “(I-2) logP = 2.26^a)”.
On to `NC(=O)Nc1c(Cl)ccc(C(=O)C2=C(O)CCCC2=O)c1Cl` [Example 1-106], for which, under setting [2], the logP result was “(I-2) logP = 1.29^a)”.
Still for that read-out and setting: in the case of `CCCNC(=O)Nc1c(Cl)ccc(C(=O)C2=C(O)CCCC2=O)c1Cl` [Example 1-107] it was “(I-2) logP = 1.98^a)”; in that of `CONC(=O)Nc1c(Cl)ccc(C(=O)C2=C(O)CCCC2=O)c1Cl` [Example 1-108], “(I-2) logP = 1.58^a)”.
`CCCN(CCC)C(=O)Nc1c(Cl)ccc(C(=O)C2=C(O)CCCC2=O)c1Cl` [Example 1-109]: the logP entry under setting [2] was “(I-2) logP = 2.95^a)”.
On to `COc1cc(NC(=O)N2CCN(C)C2=O)ccc1C(=O)C1=C(O)CCCC1=O` [Example 1-110], for which the logP entry under setting [2] was “(I-3) logP = 1.93^a)”.
On to `O=C1CCCC(O)=C1C(=O)c1ccc(Cl)c(NC(=O)c2cccs2)c1Cl` [Example 1-111], for which the logP result under setting [2] is reported as “(I-2) logP = 2.34^a)”.
Turning to `COCCN(C)C(=O)Nc1c(Cl)ccc(C(=O)C2=C(O)CCCC2=O)c1Cl` [Example 1-132], under setting [2], the logP entry is listed as “(I-2) logP = 2.04^a)”.
`COCCN(CCOC)C(=O)Nc1c(Cl)ccc(C(=O)C2=C(O)CCCC2=O)c1Cl` [Example 1-134]: the logP result under setting [2] is “(I-2) logP = 2.40^a)”.
For the compound `CCONC(=O)Nc1c(Cl)ccc(C(=O)C2=C(O)CCCC2=O)c1Cl` [Example 1-136], the logP result under setting [2] is reported as “(I-2) logP = 1.88^a)”.
Regarding `O=C(NCc1ccccc1)Nc1c(Cl)ccc(C(=O)C2=C(O)CCCC2=O)c1Cl` [Example 1-142], the logP result under setting [2] is “(I-2) logP = 2.37^a)”.
On to `O=C1CCCC(O)=C1C(=O)c1ccc(Cl)c(NC(=O)C2=NOCC2)c1Cl` [Example 1-145], for which the logP entry under setting [2] is reported as “(I-2) logP = 2.02^a)”.
For `O=C1CCCC(O)=C1C(=O)c1ccc(Cl)c(NC(=O)c2ccco2)c1Cl` [Example 1-147], the logP result under setting [2] was “(I-2) logP = 2.08^a)”.
On the same count and under the same terms, in the case of `O=C1CCCC(O)=C1C(=O)c1ccc(Cl)c(NC(=O)c2ccc(Cl)cc2)c1Cl` [Example 1-150] it was “(I-2) logP = 2.96^a)”; in that of `O=C1CCCC(O)=C1C(=O)c1ccc(Cl)c(NC(=O)N2CCCO2)c1Cl` [Example 1-151], “(I-2) logP = 1.93^a)”; in that of `CON(C)C(=S)Nc1c(Cl)ccc(C(=O)C2=C(O)CCCC2=O)c1Cl` [Example 1-159], “(I-2) logP = 2.28^a)”.
As to `O=C(Nc1c(Cl)ccc(C(=O)C2=C(O)CCCC2=O)c1Cl)NN1CCCCC1` [Example 1-160], the logP result under setting [2] is recorded as “(I-2) logP = 2.52^a)”.
Take `CON(C)C(=O)Nc1c(Cl)ccc(C(=O)C2=C(Sc3ccccc3)CCCC2=O)c1Cl` [Example 1-161]: under setting [2], the logP result is reported as “(I-2) Y = SC6H5 logP = 2.98^a)”.
As for `Cn1ccsc1=NC(=O)Nc1c(Cl)ccc(C(=O)C2=C(O)CCCC2=O)c1Cl` [Example 1-162], the logP result under setting [2] is recorded as “(I-2) logP = 1.96^a)”.
Regarding `CCn1ccsc1=NC(=O)Nc1c(Cl)ccc(C(=O)C2=C(O)CCCC2=O)c1Cl` [Example 1-163], under setting [2], the logP entry is recorded as “(I-2) logP = 2.22^a)”.
As to `O=C1CCCC(O)=C1C(=O)c1ccc(Cl)c(NC(=O)N2CCCCO2)c1Cl` [Example 1-164], the logP entry under setting [2] was “(I-2) logP = 2.17^a)”.
Still for that read-out and setting: in the case of `CCCN(CC)C(=O)Nc1c(Cl)ccc(C(=O)C2=C(O)CCCC2=O)c1Cl` [Example 1-165] it was “(I-2) logP = 2.56^a)”; in that of `CC(C)N(C)C(=O)Nc1c(Cl)ccc(C(=O)C2=C(O)CCCC2=O)c1Cl` [Example 1-166], “(I-2) logP = 2.17^a)”; in that of `CCON(C)C(=O)Nc1c(Cl)ccc(C(=O)C2=C(O)CCCC2=O)c1Cl` [Example 1-167], “(I-2) logP = 2.30^a)”.
On the same count and under the same terms, in the case of `CC(C)(C)NC(=O)Nc1c(Cl)ccc(C(=O)C2=C(O)CCCC2=O)c1Cl` [Example 1-168] it was “(I-2) logP = 2.41^a)”; in that of `CCN(C(=O)Nc1c(Cl)ccc(C(=O)C2=C(O)CCCC2=O)c1Cl)C(C)C` [Example 1-169], “(I-2) logP = 2.49^a)”; in that of `CCN(C)C(=O)Nc1c(Cl)ccc(C(=O)C2=C(O)CCCC2=O)c1Cl` [Example 1-170], “(I-2) logP = 1.91^a)”.
`O=C(NCC1CC1)Nc1c(Cl)ccc(C(=O)C2=C(O)CCCC2=O)c1Cl` [Example 1-171]: under setting [2], the logP result is reported as “(I-2) logP = 2.05^a)”.
Same read-out and setting: in the case of `COCCCNC(=O)Nc1c(Cl)ccc(C(=O)C2=C(O)CCCC2=O)c1Cl` [Example 1-172] it was “(I-2) logP = 1.72^a)”.
